Legend:
IDH1 R132C = IDH1 R132C (Homo sapiens, UniProt O75874, R132C); experiment: IDH1 R132C enzymatic assay (NADPH depletion coupled to diaphorase/resazurin); format: biochemical; conditions: IDH1 R132C enzymatic inhibition, IC50 class
Procedure, shortened: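 NADPH depletion, read via diaphorase/resazurin coupling, after adding substrate at 0.6 mM α-KG and 0.012 mM NADPH. Beforehand, 0.00032 mg/mL enzyme sat with compound 30 min at room temperature in pH 6.5 potassium phosphate buffer with MgCl2, glycerol and BSA.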

IDH1 R132H = IDH1 R132H (Homo sapiens, UniProt O75874, R132H); experiment: IDH1 R132H enzymatic assay (NADPH depletion coupled to diaphorase/resazurin); format: biochemical; conditions: IDH1 R132H enzymatic inhibition, IC50 class
Sequence of IDH1 R132H (O75874 whole entry R132H): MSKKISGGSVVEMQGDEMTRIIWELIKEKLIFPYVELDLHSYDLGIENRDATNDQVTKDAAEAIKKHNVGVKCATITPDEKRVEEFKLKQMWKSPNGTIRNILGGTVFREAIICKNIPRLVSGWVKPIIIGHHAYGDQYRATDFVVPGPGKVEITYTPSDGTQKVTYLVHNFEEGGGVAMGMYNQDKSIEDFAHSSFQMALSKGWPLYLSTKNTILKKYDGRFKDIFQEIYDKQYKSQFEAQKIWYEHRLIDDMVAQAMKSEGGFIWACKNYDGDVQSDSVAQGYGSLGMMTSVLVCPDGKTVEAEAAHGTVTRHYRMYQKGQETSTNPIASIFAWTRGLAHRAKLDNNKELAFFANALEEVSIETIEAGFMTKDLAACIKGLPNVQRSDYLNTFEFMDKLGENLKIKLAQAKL

Sequence of IDH1 R132C (O75874 whole entry R132C): as the sequence (O75874 whole entry R132H) above, with H132C counted along it

Compound	IC50 (IDH1 R132C)	IC50 (IDH1 R132H)
COc1ccc(OC)c(-n2c3c(cc(-c4ccc(-c5ccccc5)cc4)c2=O)C(=O)CC(C)(C)C3)c1 [Compound 185]	> 20000 nM	> 20000 nM
CCc1cccc(CC)c1-n1c(CC(C)C)c(C(=O)N2CCNCC2)cc(-c2nc(-c3ccc(C(=O)NC4CCCC4)cc3)c(C)s2)c1=O [Compound 188]	5000 to 20000 nM	5000 to 20000 nM
COc1ccc(OC)c(-n2c(=O)c(-c3nc(-c4ccc(Cl)cc4)cs3)cc3c(O)cncc32)c1 [Compound 190]	> 20000 nM	> 20000 nM
COc1ccc(OC)c(-n2c3c(cc(-n4ccc(-c5ccccc5)n4)c2=O)C(=O)CC(C)(C)C3)c1 [Compound 191]	1000 to 5000 nM	1000 to 5000 nM
CCc1cccc(CC)c1-n1c(C)c(C(=O)NCc2ccccc2)cc(-c2nc(-c3ccc(Cl)cc3)cs2)c1=O [Compound 192]	1000 to 5000 nM	> 20000 nM
CCc1cccc(CC)c1-n1c2c(cc(-c3nc(-c4ccc(Cl)cc4)cs3)c1=O)C(=O)OC2 [Compound 194]	5000 to 20000 nM	> 20000 nM
CC1(C)CC(=O)c2cc(-c3nc(-c4ccc(Cl)cc4)cs3)c(=O)n(-c3ccccc3F)c2C1 [Compound 195]	300 to 1000 nM	300 to 1000 nM
CCc1cccc(CC)c1-n1c2c(cc(-c3nc(C4=CCN(C(=O)OC(C)(C)C)CC4)c(C)s3)c1=O)C(=O)CC(C)(C)C2 [Compound 197]	5000 to 20000 nM	1000 to 5000 nM
CCc1cccc(CC)c1-n1c(C)c(C(=O)N2CCNC(C(=O)O)C2)cc(-c2nc(-c3ccc(Cl)cc3)cs2)c1=O (stereo not drawn) [Compound 198]	300 to 1000 nM	300 to 1000 nM
CC1(C)CC(=O)c2cc(-c3nc(-c4ccc(Cl)cc4)cs3)c(=O)n(-c3ccccc3O)c2C1 [Compound 199]	5000 to 20000 nM	5000 to 20000 nM
CCc1cccc(CC)c1-n1c2c(cc(-c3nc(-c4ccccn4)cs3)c1=O)C(=O)CC(C)(C)C2 [Compound 200]	1000 to 5000 nM	5000 to 20000 nM
COc1ccccc1Cn1c2c(cc(-c3nc(-c4ccc(Cl)cc4)cs3)c1=O)C(=O)CC(C)(C)C2 [Compound 203]	1000 to 5000 nM	1000 to 5000 nM
COc1ccc(-c2csc(-c3cc4c(n(-c5ccccc5C(F)(F)F)c3=O)CC(C)(C)CC4=O)n2)cc1 [Compound 204]	300 to 1000 nM	1000 to 5000 nM
CCc1cccc(CC)c1-n1c2c(cc(-c3nc(-c4cccc(Cl)c4)cs3)c1=O)C(=O)CC(C)(C)C2 [Compound 205]	1000 to 5000 nM	> 20000 nM
CCc1cccc(CC)c1-n1c(C)c(C(=O)N2CCC(NC)C2)cc(-c2nc(-c3ccc(Cl)cc3)cs2)c1=O (stereo not drawn) [Compound 207]	1000 to 5000 nM	1000 to 5000 nM
CCc1cccc(CC)c1-n1c2c(cc(-c3nc(C4=CCN(C)CC4)c(C)s3)c1=O)C(=O)CC(C)(C)C2 [Compound 208]	5000 to 20000 nM	> 20000 nM
CCc1cccc(CC)c1-n1c2c(cc(-c3nc(-c4cccc(F)c4)cs3)c1=O)C(=O)CC(C)(C)C2 [Compound 209]	1000 to 5000 nM	1000 to 5000 nM
CCc1cccc(CC)c1-n1c(CC(C)C)c(C(=O)N2CCNCC2)cc(-c2nc(-c3ccc(N4CCOCC4)cc3)c(C)s2)c1=O [Compound 211]	5000 to 20000 nM	5000 to 20000 nM
CCOc1ccccc1-n1c2c(cc(-c3nc(-c4ccc(Cl)cc4)cs3)c1=O)C(=O)CC(C)(C)C2 [Compound 212]	300 to 1000 nM	300 to 1000 nM

Compound	IC50 (IDH1 R132C)	IC50 (IDH1 R132H)
CCc1cccc(CC)c1-n1c2c(cc(-c3nc(-c4ccccc4Cl)cs3)c1=O)C(=O)CC(C)(C)C2 [Compound 213]	1000 to 5000 nM	1000 to 5000 nM
CCc1cccc(CC)c1-n1c(C)c(C(=O)N[C@@H]2CCCC[C@@H]2N)cc(-c2nc(-c3ccc(Cl)cc3)cs2)c1=O [Compound 214]	300 to 1000 nM	5000 to 20000 nM
Cc1cccc(C)c1-n1c2c(cc(-c3nc(-c4ccc(Cl)cc4)cs3)c1=O)C(=O)CC(C)(C)C2 [Compound 215]	1000 to 5000 nM	1000 to 5000 nM
CC1(C)CC(=O)c2cc(-c3nc(-c4ccc(Cl)cc4)cs3)c(=O)n(C3CCCCC3)c2C1 [Compound 216]	5000 to 20000 nM	> 20000 nM
CCc1cccc(CC)c1-n1c(CC(C)C)c(C(=O)N[C@@H]2CCC[C@H]2O)cc(-c2nc(-c3ccc(Cl)cc3)cs2)c1=O [Compound 217]	300 to 1000 nM	1000 to 5000 nM
CCc1cccc(CC)c1-n1c(C(C)C)c(C(=O)NCCO)cc(-c2nc(-c3ccc(Cl)cc3)cs2)c1=O [Compound 218]	300 to 1000 nM	< 300 nM
CCc1cccc(CC)c1-n1c(C)c(C(=O)NC2CCC(O)CC2)cc(-c2nc(-c3ccc(Cl)cc3)cs2)c1=O (stereo not drawn) [Compound 219]	1000 to 5000 nM	1000 to 5000 nM
CCc1cccc(CC)c1-n1c(C)c(C(=O)N2CCN[C@@H](CO)C2)cc(-c2nc(-c3ccc(Cl)cc3)cs2)c1=O [Compound 220]	300 to 1000 nM	< 300 nM
CCc1cccc(CC)c1-n1c(CC(C)C)c(C(=O)NC[C@H](N)C(=O)O)cc(-c2nc(-c3ccc(Cl)cc3)cs2)c1=O [Compound 221]	300 to 1000 nM	1000 to 5000 nM
CCc1cccc(CC)c1-n1c(CC(C)C)c(C(=O)N2CCNCC2)cc(-c2nc(-c3ccc(OC)cc3)c(C)s2)c1=O [Compound 224]	300 to 1000 nM	300 to 1000 nM
COc1ccc(OC)c(-n2c3c(cc(-c4nc(-c5ccccc5)cs4)c2=O)C(=O)CC(C)(C)C3)c1 [Compound 225]	1000 to 5000 nM	1000 to 5000 nM
CCc1cccc(CC)c1-n1c2c(cc(-c3nc(-c4ccccc4F)cs3)c1=O)C(=O)CC(C)(C)C2 [Compound 226]	1000 to 5000 nM	1000 to 5000 nM
CC1(C)CC(=O)c2cc(-c3nc(-c4ccc(Cl)cc4)cs3)c(=O)n(-c3ccccc3C(=O)O)c2C1 [Compound 227]	5000 to 20000 nM	5000 to 20000 nM
CCc1cccc(CC)c1-n1c2c(cc(-c3nc(-c4cccc(C(F)(F)F)c4)cs3)c1=O)C(=O)CC(C)(C)C2 [Compound 228]	> 20000 nM	> 20000 nM
CCc1cccc(CC)c1-n1c2c(cc(-c3nc(-c4ccccc4C(F)(F)F)cs3)c1=O)C(=O)CC(C)(C)C2 [Compound 230]	1000 to 5000 nM	5000 to 20000 nM
CCc1cccc(CC)c1-n1c2c(cc(-c3nc(-c4ccc(C)cc4)cs3)c1=O)C(=O)CC(C)(C)C2 [Compound 233]	300 to 1000 nM	300 to 1000 nM
CCc1cccc(CC)c1-n1c(C(C)C)c(C(=O)N2CCN[C@@H](C)C2)cc(-c2nc(-c3ccc(Cl)cc3)cs2)c1=O [Compound 234]	300 to 1000 nM	1000 to 5000 nM
CCc1cccc(CC)c1-n1c(CC)c(C(=O)O)cc(-c2nc(-c3ccc(Cl)cc3)cs2)c1=O [Compound 236]	5000 to 20000 nM	1000 to 5000 nM
CCc1cccc(CC)c1-n1c(C)c(C(=O)NC2CCC(N)CC2)cc(-c2nc(-c3ccc(Cl)cc3)cs2)c1=O (stereo not drawn) [Compound 237]	5000 to 20000 nM	5000 to 20000 nM

More lines, now with the values ahead:

IC50 (IDH1 R132C)	IC50 (IDH1 R132H)	Compound
< 300 nM	< 300 nM	CCc1cccc(CC)c1-n1c(CC(C)C)c(C(=O)N2CCNCC2)cc(-c2ccn(-c3ccc(Cl)cc3)n2)c1=O [Compound 184]
< 300 nM	300 to 1000 nM	CCc1cccc(CC)c1-n1c2c(cc(-c3nc(-c4ccc(C(F)(F)F)cc4)cs3)c1=O)C(=O)CC(C)(C)C2 [Compound 186]
300 to 1000 nM	300 to 1000 nM	CCc1cccc(CC)c1-n1c(CC(C)C)c(C(=O)N[C@@H]2CCC[C@@H]2O)cc(-c2nc(-c3ccc(Cl)cc3)cs2)c1=O [Compound 187]
< 300 nM	300 to 1000 nM	CCc1cccc(CC)c1-n1c(CC(C)C)c(C(=O)N2CCN[C@H](C(=O)O)C2)cc(-c2nc(-c3ccc(Cl)cc3)cs2)c1=O [Compound 189]
300 to 1000 nM	300 to 1000 nM	CCc1cccc(CC)c1-n1c(CC(C)C)c(C(=O)N2CC(=O)N[C@H](C(=O)O)C2)cc(-c2nc(-c3ccc(Cl)cc3)cs2)c1=O [Compound 193]
< 300 nM	1000 to 5000 nM	CCc1cccc(CC)c1-n1c(CC(C)C)c(C(=O)NC(CC)CO)cc(-c2nc(-c3ccc(Cl)cc3)cs2)c1=O (stereo not drawn) [Compound 196]
< 300 nM	< 300 nM	CCc1cccc(CC)c1-n1c(CC(C)C)c(C(=O)N2CCNC(CO)C2)cc(-c2nc(-c3ccc(Cl)cc3)cs2)c1=O (stereo not drawn) [Compound 201]
< 300 nM	300 to 1000 nM	CCc1cccc(CC)c1-n1c(CC(C)C)c(C(=O)N2CCNC(c3ccccc3)C2)cc(-c2nc(-c3ccc(Cl)cc3)cs2)c1=O (stereo not drawn) [Compound 202]
< 300 nM	300 to 1000 nM	CCc1cccc(CC)c1-n1c(CC(C)C)c(C(=O)N2CC(C(=O)O)NCC2C)cc(-c2nc(-c3ccc(Cl)cc3)cs2)c1=O (stereo not drawn) [Compound 206]
< 300 nM	300 to 1000 nM	CCc1cccc(CC)c1-n1c(CC(C)C)c(C(=O)N2CCNCC2)cc(-c2nc(-c3ccc(C(F)(F)F)cc3)c(C)s2)c1=O [Compound 210]
< 300 nM	1000 to 5000 nM	CCc1cccc(CC)c1-n1c(C(C)C)c(C(=O)N2CCN[C@@H](C(=O)OC)C2)cc(-c2nc(-c3ccc(Cl)cc3)cs2)c1=O [Compound 222]
< 300 nM	1000 to 5000 nM	CCc1cccc(CC)c1-n1c(C)c(C(=O)N2CCCC(N)C2)cc(-c2nc(-c3ccc(Cl)cc3)cs2)c1=O (stereo not drawn) [Compound 223]
< 300 nM	300 to 1000 nM	CCc1cccc(CC)c1-n1c(C(C)C)c(C(=O)N2CCN[C@@H](CO)C2)cc(-c2nc(-c3ccc(Cl)cc3)cs2)c1=O [Compound 229]
< 300 nM	< 300 nM	CCc1cccc(CC)c1-n1c(CC(C)C)c(C(=O)N2CCNCC2)cc(-c2nc(-c3ccc(Cl)cc3)cs2)c1=O [Compound 231]
< 300 nM	300 to 1000 nM	CCc1cccc(CC)c1-n1c(CC(C)C)c(C(=O)NCC(O)c2ccccc2)cc(-c2nc(-c3ccc(Cl)cc3)cs2)c1=O (stereo not drawn) [Compound 232]
< 300 nM	< 300 nM	CCc1cccc(CC)c1-n1c(CC(C)C)c(C(=O)N2CCNCC2)cc(-c2nc(-c3ccc(C#N)cc3)c(C)s2)c1=O [Compound 235]
